Data taken from patent US6495559B2, “NPY Y5 receptor antagonists” (Merck & Co., Inc., priority 1998, dated 2002).

Key:
[1] = system: bPP-induced food intake; assay: Bovine pancreatic polypeptide (bPP)-induced food intake in Sprague-Dawley rats; assay type: in vivo; details: 1 hour prior to ICV bPP
Method: Male Sprague-Dawley rats aged 7 weeks (Charles River, Japan) were maintained under the controlled temperature (23±3° C.), humidity (55±15%) and light-dark cycle (7:00-19:00 light on). Rats were housed individually with ad libitum access food (CE-2, Clea Japan) and tap water. Rats were anesthetized with sodium pentobarbital (50 mg/kg, i.p., Dainabot, Japan). A permanent stainless steel guide cannula for intracerebroventricular (ICV) injection (21 gauge, 10 mm long) was stereotaxically implanted into the right lateral ventricle. The stereotaxic coordinates used were as follows: 0.9 mm posterior and 1.2 mm lateral to the bregma and 1.5 mm ventral to the brain surface. Animals were allowed at least 6-day recovery postoperatively before the start of feeding experiment. The day before the experiment, they were handled and underwent mock injection, and nocturnal food intake was measured. Rats which ate more than 15 g during the night before the experiment were used for the following experiment. Test compounds were suspended in 0.5% methylcellulose and orally administered by gavage. Administration of test compounds usually began at 10:00. Dosing volume was 5 ml/kg. […] Two hour post-injection food intake was measured for each rat. […]

[2] = system: rats; assay: Observation of abnormal behavior after oral dosing in rats; assay type: in vivo; details: 100 mg/kg p.o., during 24 hour after dosing
Method: Compound 100 was orally administered 1 hour prior to the ICV-injection of bPP in satiated male Sprague-Dawley rats. […] Thus, Compound 100 has a potent in vivo Y5 antagonistic activity without causing any abnormal behavior.

[3] = system: mice; assay: Observation of abnormal behavior after oral dosing in mice; assay type: in vivo; details: 100 mg/kg p.o., during 24 hour after dosing

Compound	melting point [°C]	also measured
CS(=O)(=O)N1CC2(CCN(C(=O)Nc3cnc(-c4ccccc4)cn3)CC2)c2ccccc21 [Compound 100, 1 -Methanesulfonyl-N-(5-phenyl-2-pyrazinyl)spiro[indoline-3,4′-piperidine]-1′-carboxamide]	–	bPP-induced food intake ([1]; 1, 3, 10 and 30 mg/kg orally, satiated male rats, two hour post-injection food intake): suppressed bPP-induced food intake in a dose-dependent manner; minimum effective dose ([1]; oral, suppression of bPP-induced food intake): 3 mg/kg; abnormal behavior [2]: did not cause any abnormal behavior; abnormal behavior [3]: did not cause any abnormal behavior
CCS(=O)(=O)N1CC2(CCN(C(=O)Nc3cnc(-c4nncs4)cn3)CC2)c2ccccc21 [Compound 152, 1-ethylsulfonyl-N-[5-(1,3,4-thiadiazol-2-yl)-2-pyrazinyl]spiro[indoline-3,4′-piperidine]-1′-carboxamide]	193 to 194	–
CCS(=O)(=O)N1CC2(CCN(C(=O)Nc3cnc(-c4ncns4)cn3)CC2)c2ccccc21 [Compound 153, 1-ethylsulfonyl-N-[5-(1,2,4-thiadiazol-5-yl)-2-pyrazinyl]spiro[indoline-3,4′-piperidine]-1′-carboxamide]	211 to 214	–
CCS(=O)(=O)N1CC2(CCN(C(=O)Nc3cnc(-c4nncs4)cn3)CC2)c2ccc(F)cc21 [Compound 154, 1-ethylsulfonyl-6-fluoro-N-[5-(1,3,4-thiadiazol-2-yl)-2-pyrazinyl]spiro[indoline-3,4′-piperidine]-1′-carboxamide]	228 to 230	–
CCS(=O)(=O)N1CC2(CCN(C(=O)Nc3cnc(-c4nncs4)cn3)CC2)c2cc(F)ccc21 [Compound 155, 1-ethylsulfonyl-5-fluoro-N-[5-(1,3,4-thiadiazol-2-yl)-2-pyrazinyl]spiro[indoline-3,4′-piperidine]-1′-carboxamide]	223 to 224	–
CS(=O)(=O)N1CC2(CCN(C(=O)Nc3cnc(-c4ccccc4)cn3)CC2)c2cc(F)ccc21 [Compound 202, 5-fluoro-1-methylsulfonyl-N-(5-phenyl-2-pyrazinyl)spiro[indoline-3,4′-piperidine]-1′-carboxamide]	215.5 to 215.8	–
CCS(=O)(=O)N1CC2(CCN(C(=O)Nc3cn(-c4cccc(F)c4)cn3)CC2)c2ccccc21 [Compound 203, 1-ethylsulfonyl-N-[1-(3-fluorophenyl)imidazol-4-yl]spiro[indoline-3,4′-piperidine]-1′-carboxamide]	200 to 202	–
CCS(=O)(=O)N1CC2(CCN(C(=O)Nc3cn(-c4ccccc4F)cn3)CC2)c2ccccc21 [Compound 204, 1-ethylsulfonyl-N-[1-(2-fluorophenyl)imidazol-4-yl]spiro[indoline-3,4′-piperidine]-1′-carboxamide]	180 to 181.5	–
CC(=O)c1ccc(NC(=O)N2CCC3(CC2)CN(S(N)(=O)=O)c2ccccc23)cc1 [Compound 300, N-(4-acetylphenyl)-1-sulfamoylspiro[indoline-3,4′-piperidine]-1′-carboxamide]	233 to 236	–
NS(=O)(=O)N1CC2(CCN(C(=O)Nc3nnc(-c4ccccc4)s3)CC2)c2ccccc21 [Compound 400, N-(5-phenyl-1,3,4-thiadiazol-2-yl)-1-sulfamoylspiro[indoline-3,4′-piperidine]-1′-carboxamide]	> 300	–
NS(=O)(=O)N1CC2(CCN(C(=O)Nc3cc(-c4ccccc4)no3)CC2)c2ccccc21 [Compound 402, N-(3-phenylisoxazol-5-yl)-1-sulfamoylspiro[indoline-3,4′-piperidine]-1′-carboxamide]	226 to 227	–
CC(=O)N1CC2(CCN(C(=O)Nc3nnc(-c4ccccc4)s3)CC2)c2ccccc21 [Compound 600, 1-Acetyl-N-(5-phenyl-1,3,4-thiadiazol-2-yl)spiro[indoline-3,4′-piperidine]-1′-carboxamide]	260	–
CN(C)C(=O)N1CC2(CCN(C(=O)Nc3nnc(-c4ccccc4)s3)CC2)c2ccccc21 [Compound 800, 1-Dimethylcarbamoyl-N-(5-phenyl-1,3,4-thiadiazol-2-yl)spiro[indoline-3,4′-piperidine]-1′-carboxamide]	267	–
CS(=O)(=O)N1CC2(CCN(C(=O)Nc3cc(-c4ccccc4)no3)CC2)c2cccnc21 [Compound 1402, 7-aza-N-(3-phenyl-5-isoxazolyl)-1-methylsulfonylspiro[indoline-3,4′-piperidine]-1′-carboxamide]	211 to 212	–
